According to US20090118314A1, “TUMOR SUPPRESSOR” (JAPAN AS REPRESENTED BY DIRECTOR GENERAL OF AGENCY CENTER, priority 2006, published 2009):
pIC50: −log10 of the molar value.

Legend:
PAI-1 = PAI-1 (Homo sapiens, UniProt P05121); assay: PAI-1 inhibitory activity using synthetic substrate S-2288; type: biochemical
Text: PAI-1 inhibitory activity can be measured using a synthetic substrate S-2288 according to the methods described in International Publication WO04/011442 pamphlet, International Publication WO04/10996 pamphlet, JP-A-2004-250401, etc.

Min mice = assay: Cancer suppression test (intestinal polyp development) in Min mice; type: in vivo; conditions: male Min mice, 100 ppm in feed, sacrificed at 15 weeks old
Text: That is to say, the inventors used, as a test system, familial adenomatous polyposis (FAP) model mice (Apc gene hetero-deficient mice) belonging to a high risk group of large intestinal cancer. These model mice have two characteristics. […] Thus, this mouse can be used as an experimental animal model useful for examining the relationship between a hyperlipidemia condition and large intestinal cancer. In this test, based on the fact that expression of PAI-1 was increased in the polyps of FAP patients and that expression of PAI-1 was induced by triglyceride, the action of suppressing the development of intestinal polyps of a PAI-1-inhibiting compound was evaluated using Min mice that were one type of Apc gene-deficient mice.
5-week-old male Min mice (CLEA Japan, Inc.) were purchased. After giving a basic feed (AIN-76A) to the mice for 1 week, 100 ppm of a test substance was mixed into the feed, and the mixed feed was then given to the mice. On the other hand, in the case of wild-type mice also, the same amount of the test substance was mixed into the feed, and the mixed feed was then given to the wild-type mice. The body weight and the feed intake were measured every week. The mice were sacrificed under anesthesia, when they were 15 weeks old. Then, the weights of main organs (spleen and heart) were measured. Small intestine and large intestine were washed and were then excised in a longitudinal direction, followed by fixing with formalin. The number of intestinal polyps in the small intestine and large intestine were counted and the size thereof were measured under a stereoscopic microscope.

Sequence of PAI-1 (P05121 24-402, species assumed): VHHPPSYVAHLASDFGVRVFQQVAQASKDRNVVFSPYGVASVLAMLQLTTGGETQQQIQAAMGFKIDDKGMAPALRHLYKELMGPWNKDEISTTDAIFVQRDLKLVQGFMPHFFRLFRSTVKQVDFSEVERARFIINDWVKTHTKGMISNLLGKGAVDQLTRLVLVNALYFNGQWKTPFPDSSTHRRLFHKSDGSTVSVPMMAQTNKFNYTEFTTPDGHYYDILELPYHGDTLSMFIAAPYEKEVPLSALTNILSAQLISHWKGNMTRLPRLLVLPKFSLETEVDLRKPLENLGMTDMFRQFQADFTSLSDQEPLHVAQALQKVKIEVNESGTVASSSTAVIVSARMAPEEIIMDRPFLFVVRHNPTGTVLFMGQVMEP

SMILES | pIC50 (PAI-1) | further results
Cc1ccc(-c2nc(-c3ccc4cc(OCCCCCC(C(=O)O)C(=O)O)ccc4c3)oc2-c2ccc(C)cc2)cc1 [compound 7, [5-[[6-[4,5-bis(4-methylphenyl)-2-oxazolyl]-2-naphthalenyl]oxy]pentyl]propanedioic acid] | 6.23 | –
O=C(O)C(CCCCCOc1ccc2cc(-c3nc4ccc(OCc5ccccc5)cc4o3)ccc2c1)C(=O)O [compound 24, [5-[[6-[6-(phenylmethoxy)-2-benzoxazolyl]-2-naphthalenyl]oxy]pentyl]propanedioic acid] | 6.27 | –
O=C(O)C(CCCCCOc1ccc2cc(-c3nc(-c4ccccc4)c(-c4ccccc4)o3)ccc2c1)C(=O)O [compound 6, [5-[[6-(4,5-diphenyl-2-oxazolyl)-2-naphthalenyl]oxy]pentyl]propanedioic acid] | 6.03 | –
O=C(O)C(CCCOc1ccc2cc(-c3nc4cc(-c5ccccc5)ccc4o3)ccc2c1)C(=O)O [compound 13, [3-[[6-(5-phenyl-2-benzoxazolyl)-2-naphthalenyl]oxy]propyl]propanedioic acid] | 6.27 | –
CC(C)(C)c1ccc2oc(-c3ccc4cc(OCCCCCC(C(=O)O)C(=O)O)ccc4c3)nc2c1 [Compound No. 20, [5-[[6-[5-(1,1-dimethylethyl)-2-benzoxazolyl]-2-naphthalenyl]oxy]pentyl]propanedioic acid] | 6.36 | development of intestinal polyps in the proximal portion of small intestine (Min mice): suppressed particularly strongly; distribution of the polyp size (Min mice): a decrease in the size was observed overall; polyps with a diameter size of 1 mm or less (Min mice): significantly decreased; weight of heart (indicator of anemia caused by bleeding associated with intestinal polyps) (Min mice): significantly reduced; weight of spleen (indicator of anemia caused by bleeding associated with intestinal polyps) (Min mice): significantly reduced; total number of polyps per mouse, decreased to (Min mice; small and large intestine): approximately 66%
COc1ccc(-c2cc(OCc3ccccc3F)nc(-c3ccc4cc(OCCCC(C(=O)O)C(=O)O)ccc4c3)n2)cc1 [compound 43, [3-[[6-[4-[(2-fluorophenyl)methoxy]-6-(4-methoxyphenyl)-2-pyrimidinyl]-2-naphthalenyl]oxy]propyl]propanedioic acid] | 6.07 | –

These reach a higher pIC50 (PAI-1). Values come first.

pIC50 (PAI-1) | SMILES | further results
6.46 | O=C(O)C(CCCCCOc1ccc2cc(-c3nc(OCc4ccccc4)cc(-c4ccccc4)n3)ccc2c1)C(=O)O [compound 47, [5-[[6-[4-phenyl-6-(phenylmethoxy)-2-pyrimidinyl]-2-naphthalenyl]oxy]pentyl]propanedioic acid] | –
6.54 | CC(C)(C)c1cc(OCc2ccc(F)cc2)nc(-c2ccc3cc(OCCCCCC(C(=O)O)C(=O)O)ccc3c2)n1 [compound 49, [5-[[6-[4-(1,1-dimethylethyl)-6-[(4-fluorophenyl)methoxy]-2-pyrimidinyl]-2-naphthalenyl]oxy]pentyl]propanedioic acid] | –
6.66 | CC(C)(C)c1cc(OCc2ccccc2Cl)nc(-c2ccc3cc(OCCCCCC(C(=O)O)C(=O)O)ccc3c2)n1 [compound 50, [5-[[6-[4-[(2-chlorophenyl)methoxy]-6-(1,1-dimethylethyl)-2-pyrimidinyl]-2-naphthalenyl]oxy]pentyl]propanedioic acid] | –
6.49 | CC(C)(C)c1cc(OCC2CCCCC2)nc(-c2ccc3cc(OCCCCCC(C(=O)O)C(=O)O)ccc3c2)n1 [compound 48, [5-[[6-[4-cyclohexylmethoxy-6-(1,1-dimethylethyl)-2-pyrimidinyl]-2-naphthalenyl]oxy]pentyl]propanedioic acid] | –
6.41 | O=C(O)C(CCCCCOc1ccc2cc(-c3nc4ccc(OCC5CCCCC5)cc4o3)ccc2c1)C(=O)O [compound 23, [5-[[6-[6-(cyclohexylmethoxy)-2-benzoxazolyl]-2-naphthalenyl]oxy]pentyl]propanedioic acid] | –
